Data taken from patent publication US9309224B2 (Deciphera Pharmaceuticals, LLC, priority 2013, dated 2016).

Columns and labels:
[1] = target: T1, unphosphorylated PDGFRβ kinase (uPDGFRβ, Seq. ID No. 3) (Homo sapiens, UniProt P09619); experiment: Unphosphorylated PDGFRβ kinase assay (pyruvate kinase/lactate dehydrogenase coupled); type: biochemical; conditions: ATP 500 μM
T1 construct: purchased DeCode
Excerpt: Unphosyhorylated PDGFRβ (uPDGFRβkinase (Seq. ID No. 3) assay

M-NFS-60 cells = experiment: M-NFS-60 cell proliferation assay; type: cell-based; conditions: 67 h incubation, resazurin
Method: M-NFS-60 Cell Proliferation Assay A serial dilution of test compound was dispensed into a 384-well black clear bottom plate (Corning, Corning, N.Y.). Two thousand five hundred cells were added per well in 50 μL complete growth medium. […] IC50 values were calculated from a series of percent inhibition values determined at a range of inhibitor concentrations using software routines as implemented in the GraphPad Prism software package.

[2] = target: T2, unphosphorylated c-FMS kinase (uFMS, Seq. ID no. 1) (Homo sapiens, UniProt P07333); experiment: uFMS kinase assay (pyruvate kinase/lactate dehydrogenase coupled); type: biochemical; conditions: ATP 500 μM
T2 construct: purchased Millipore
T2 sequence (P07333 538-972): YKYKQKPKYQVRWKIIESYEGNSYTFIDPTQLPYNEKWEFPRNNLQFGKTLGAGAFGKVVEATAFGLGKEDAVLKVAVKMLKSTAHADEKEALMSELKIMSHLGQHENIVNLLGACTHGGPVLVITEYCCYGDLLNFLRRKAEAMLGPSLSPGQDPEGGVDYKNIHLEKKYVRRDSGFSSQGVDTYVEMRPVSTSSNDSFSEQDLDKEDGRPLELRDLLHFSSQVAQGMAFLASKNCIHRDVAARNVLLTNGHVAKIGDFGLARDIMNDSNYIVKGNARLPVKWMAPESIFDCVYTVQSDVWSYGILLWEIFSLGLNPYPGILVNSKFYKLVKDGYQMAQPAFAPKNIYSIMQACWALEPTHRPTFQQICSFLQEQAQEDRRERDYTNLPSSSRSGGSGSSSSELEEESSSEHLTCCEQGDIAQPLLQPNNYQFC

osteoclast precursors = experiment: Osteoclast tartrate-resistant acid phosphatase assay; type: cell-based; conditions: Osteoclast; 7-14 days, RANKL and M-CSF
[3] = target: T3, unphosphorylated c-KIT kinase (uKIT, Seq. ID no. 2) (Homo sapiens, UniProt P10721); experiment: uKit kinase assay (pyruvate kinase/lactate dehydrogenase coupled); type: biochemical; conditions: ATP 2000 μM
T3 construct: uKit with N-terminal GST fusion used for
Method: In this assay, the oxidation of NADH (thus the decrease at A340 nm) was continuously monitored spectrophometrically. […] The inhibition reaction was started by mixing serial diluted test compound with the above reaction mixture. The absorption at 340 nm was monitored continuously for 4 hours at 30° C. on Synergy 2 plate reader (BioTech).

PC-3 M-luc cells = experiment: PC-3 peritibial implant model of cancer bone metastasis; type: in vivo, mouse; conditions: oral gavage twice daily; score 0-4; vehicle-treated animals score 4
Excerpt: PC-3 Peritibial Implant Model of Cancer Bone Metastasis To evaluate in vivo anti-cancer activity of compounds of formula I, the PC-3 M-luc peritibial injection model of bone invasiveness model was employed. Briefly, PC-3 M-luc cells were obtained from Xenogen Corporation (Caliper Life Sciences) and expanded using MEM media modified with L-Glutamine (Cell Gro® #10-045-CV) supplemented with 10% fetal bovine serum, 1% penicillin-streptomycin-glutamine, 1% non-essential amino acids, and 1% MEM vitamins in 5% CO2 atmosphere at 37° C. Six to 7 week old male nude mice (Crl:NU-Foxn1nu) were obtained from Charles River Laboratories. Test mice were implanted peritibially on Day 0 with 1×10^6 cells/mouse (0.1 mL) using an insulin syringe with a fixed 28-gauge needle. The needle was inserted at the ankle between the tibia and fibula until the bevel of the needle reaches approximately half way between the knee and ankle Treatments began on Day 0. Animals were dosed by oral gavage twice daily for the study duration. All procedures carried out in this experiment were conducted in compliance with all the laws, regulations and guidelines of the National Institutes of Health (NIH). […] Lesions in the right hind limb were scored with values of 0, 1, 2, 3, or 4 based on a qualitative assessment of lesion size as defined by: 0: Normal Bone 1: Minimal lesions. […]

T1 sequence (P09619 557-1105): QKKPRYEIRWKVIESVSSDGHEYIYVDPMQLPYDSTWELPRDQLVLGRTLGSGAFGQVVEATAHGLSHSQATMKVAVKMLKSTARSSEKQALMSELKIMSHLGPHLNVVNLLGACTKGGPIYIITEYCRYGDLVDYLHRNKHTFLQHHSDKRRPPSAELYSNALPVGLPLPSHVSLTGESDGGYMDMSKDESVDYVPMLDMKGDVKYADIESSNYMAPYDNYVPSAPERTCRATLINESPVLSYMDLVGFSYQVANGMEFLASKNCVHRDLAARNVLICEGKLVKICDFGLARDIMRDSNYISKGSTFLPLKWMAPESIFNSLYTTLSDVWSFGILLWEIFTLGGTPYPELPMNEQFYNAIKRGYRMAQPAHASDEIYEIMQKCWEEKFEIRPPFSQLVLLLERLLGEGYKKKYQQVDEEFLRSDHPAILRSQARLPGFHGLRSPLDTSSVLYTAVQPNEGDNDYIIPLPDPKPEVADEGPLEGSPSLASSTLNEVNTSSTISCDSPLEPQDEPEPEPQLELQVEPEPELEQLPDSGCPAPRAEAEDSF
T3 sequence (P10721 with tags, fused parts or gaps): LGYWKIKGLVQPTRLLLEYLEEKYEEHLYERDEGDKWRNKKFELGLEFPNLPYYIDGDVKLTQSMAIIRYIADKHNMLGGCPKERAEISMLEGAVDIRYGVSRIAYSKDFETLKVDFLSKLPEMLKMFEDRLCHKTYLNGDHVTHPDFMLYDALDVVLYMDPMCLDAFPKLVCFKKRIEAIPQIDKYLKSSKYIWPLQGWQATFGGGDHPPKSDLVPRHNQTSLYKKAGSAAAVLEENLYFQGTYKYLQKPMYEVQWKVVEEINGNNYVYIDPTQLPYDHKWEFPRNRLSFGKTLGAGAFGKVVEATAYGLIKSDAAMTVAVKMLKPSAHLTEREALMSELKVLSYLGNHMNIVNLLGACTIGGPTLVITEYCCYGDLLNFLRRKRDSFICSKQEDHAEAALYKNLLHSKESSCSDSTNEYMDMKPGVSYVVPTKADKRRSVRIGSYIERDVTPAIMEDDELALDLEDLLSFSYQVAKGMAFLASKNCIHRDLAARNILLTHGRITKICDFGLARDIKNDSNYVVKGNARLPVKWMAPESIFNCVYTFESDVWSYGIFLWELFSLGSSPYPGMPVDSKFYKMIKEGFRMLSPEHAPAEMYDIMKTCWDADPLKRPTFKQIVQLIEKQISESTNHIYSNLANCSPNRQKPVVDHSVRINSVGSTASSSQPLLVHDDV

IC50 [1]: 100 to 1000 nM
IC50 [2]: < 10 nM
IC50 (osteoclast precursors): < 10 nM
IC50 [3]: 100 to 1000 nM
Compound: CN1CCN(C(=O)Nc2cc(Oc3ccc(NC(=O)NC(=O)C(C)(C)C)nc3)ccn2)CC1 [Example 45, 4-methyl-N-(4-((6-(3-pivaloylureido)pyridin-3-yl)oxy)pyridin-2-yl)piperazine-1-carboxamide]
IC50 (M-NFS-60 cells): < 10 nM
lesion score (PC-3 M-luc cells): 3
